Results published in PubChem BioAssay (NCI).
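Protocol summary: plate cells (96-well), add compound at 5 concentrations, incubate 48 h, interpolate endpoints linearly. At the TGI there is no net growth.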

How the values were obtained:
Assay in all cases: growth of human tumour cells (NCI), 48 h
MDA-N = tested on: MDA-N
DU-145 prostate = tested on: DU-145 prostate
CAKI-1 renal = tested on: CAKI-1 renal
MALME-3M melanoma = tested on: MALME-3M melanoma
LOX IMVI melanoma = tested on: LOX IMVI melanoma
IGROV1 ovarian = tested on: IGROV1 ovarian
MDA-MB-231 breast = tested on: MDA-MB-231 breast
KM12 colon = tested on: KM12 colon
UACC-257 melanoma = tested on: UACC-257 melanoma
HCT-15 colon = tested on: HCT-15 colon
OVCAR-3 ovarian = tested on: OVCAR-3 ovarian
CCRF-CEM leukemia = tested on: CCRF-CEM leukemia

SMILES	TGI (MDA-N) [µM]	TGI (DU-145 prostate) [µM]	TGI (CAKI-1 renal) [µM]	TGI (MALME-3M melanoma) [µM]	TGI (LOX IMVI melanoma) [µM]	TGI (IGROV1 ovarian) [µM]	TGI (MDA-MB-231 breast) [µM]	TGI (KM12 colon) [µM]	TGI (UACC-257 melanoma) [µM]	TGI (HCT-15 colon) [µM]	TGI (OVCAR-3 ovarian) [µM]	TGI (CCRF-CEM leukemia) [µM]
C/C(=N\NC(=O)/C(C#N)=C\c1ccc(N(CCC#N)CCC#N)cc1)c1ccccc1	> 10	> 10	> 10	> 10	> 10	> 10	> 10	> 10	> 10	> 10		
NC12CC3CC(C1)CC(Cl)(C3)C2				> 100	> 100	> 100		> 100	> 100		> 100	> 100
Cc1ccc(S(=O)(=O)[N-]C2C(=O)c3ccccc3C(=O)C2[n+]2cccc(C(N)=O)c2)cc1 (stereo not drawn)	> 100	> 100	> 100		> 100	> 100	> 100	> 100	> 100	> 100	> 100	> 100
COc1ccc(/C=C2\N=C(c3ccccc3)N(Nc3nnc(NN4C(=O)/C(=C/c5ccc(OC)cc5)N=C4c4ccccc4)c4ccccc34)C2=O)cc1					43	> 100		54.3	> 100	> 100		> 100
Cc1cc(S(=O)(=O)Nc2nc(N)nc(N3CCOCC3)n2)c(SCC(=O)O)cc1Cl	> 10	> 10	> 10	> 10	> 10	> 10		> 10	> 10	> 10	> 10	> 10
CCOC(=O)c1nc2ccc(Cl)cc2c2c1CCO2			> 100	> 100	> 100	> 100		> 100	> 100	> 100	> 100	> 100
CO/C(=N\N=C\c1ccc(OC)cc1OC)c1ccncc1				> 10	> 10	> 10		> 10		> 10		> 10
COC(=O)[C@H]1C=C[C@@H](C)n2c(=O)c3ccccc3c(=O)n21			> 100	> 100	> 100	> 100		> 100	> 100	> 100	> 100	> 100
O=c1oc2cc(O)ccc2c(O)c1C(c1ccccn1)c1c(O)c2ccc(O)cc2oc1=O	> 100	> 100	> 100		> 100	> 100	> 100	> 100	> 100	> 100	> 100	> 100
NC(=O)c1csc(CCCCCCc2nc(C(N)=O)cs2)n1			> 100	> 100	> 100	> 100		> 100	> 100	> 100	> 100	> 62.4
CC(=O)OC1OC2C(NC(=O)OC(C)(C)C)C1CC2(OCc1ccccc1)OCc1ccccc1 (stereo not drawn)			> 100	20.8		90.3		71.5	37.9	> 100	38.5	82.9
Cn1c(=O)c2c(nc(C[N+]3([O-])CCOCC3)n2C)n(C)c1=O			> 100	> 100	> 100	> 100		> 100	> 100	> 100	> 100	> 100
O=C(CSCC(=O)N/N=C/c1cccc(OCc2ccccc2)c1)N/N=C/c1cccc(OCc2ccccc2)c1		> 100	> 100	> 100	> 100	> 100	> 100	> 100	> 85.1	> 100	> 100	> 100
COc1ccc(-n2c3c(c4cc(O)ccc42)C(=O)c2ccccc2C3=O)cc1	> 100	> 100	> 100	> 100	58	30.8	13.6	> 100	> 100	> 100	27.2	
C=CCNC(=O)/C(Cc1cc(Br)c(OC)c(Br)c1O)=N\O	1.07	25.1	33.7	17.3	55	47.8	32.6	19.8	27.1	21.7	10.7	
COc1ccc(C2CC(=O)Oc3ccccc3O2)cc1 (stereo not drawn)	> 100	> 100				> 100	> 100	> 100	> 100	> 100	> 100	> 100
Nc1nc(N)nc(-c2cnccn2)n1		> 100	> 100	> 100	> 100	> 100	> 100	> 100	> 100	> 100	> 100	> 100

SMILES	TGI (MDA-N) [µM]	TGI (DU-145 prostate) [µM]	TGI (CAKI-1 renal) [µM]	TGI (MALME-3M melanoma) [µM]	TGI (LOX IMVI melanoma) [µM]	TGI (IGROV1 ovarian) [µM]	TGI (MDA-MB-231 breast) [µM]	TGI (KM12 colon) [µM]	TGI (UACC-257 melanoma) [µM]	TGI (HCT-15 colon) [µM]	TGI (OVCAR-3 ovarian) [µM]	TGI (CCRF-CEM leukemia) [µM]
CCOC(OCC)c1ccc(/C=C/c2cc(OC)c(OC)c(OC)c2)cc1			74.3	43.8	25	> 100			51.2	30.7	38	37.3
O=C1C(Cl)C(c2ccc(Cl)cc2)N1n1cnc2ccccc2c1=O (stereo not drawn)			> 100	> 100	> 100	> 100		> 100	> 100	> 100	> 100	> 100
CN(C)c1ncnc2c1ncn2C1C=CC(COS(N)(=O)=O)C1 (stereo not drawn)	> 100	> 100	> 100	> 100	> 100	> 100		> 100	> 100	> 100	> 100	> 100
CC(NC(=O)/C(C#N)=C/c1ccc2[nH]ccc2c1)c1ccccc1 (stereo not drawn)	31.4	39.8	66	71.2	31.8	33.1		32.2	38.7	27.6	58	45.8
COc1ccc(-c2onc(-c3c(C)cc(C)cc3C)c2C2=NCCCN2)cc1			44.8	> 100	> 100	> 100		> 100	70.1	> 100	> 100	> 100
NC(=O)C(=CN1C(=O)CC(=O)NC1=S)C(N)=O		> 100	> 100		> 100	> 100	> 100	> 100	> 100	> 100	> 100	
O=C(O)c1cc(-c2ccccc2O)nc2ccccc12			> 100	> 100		> 100		> 100	> 100	> 100	> 100	> 100
COC1=CC(C2c3cc4c(cc3[C@@H](Nc3ccc([N+](=O)[O-])cc3)C3COC(=O)[C@H]23)OCO4)=CC(=O)C1=O (stereo partly drawn)			25.6	26.4	13.2	> 65.2		26.4	> 100	34.1	54.9	> 25.3
NC(=O)C12C3C4C1C1C2C3C41C(N)=O (stereo not drawn)			> 100		> 100	> 100		> 100	> 100	> 100	> 100	> 100
CC(=O)c1c(O)ccc2c1CC(CC=O)O2 (stereo not drawn)			> 100	> 100	60.9	> 100		> 100	> 100	> 100	> 100	> 100
CN(C)CCCSc1c2ccccc2nc2cc(NCC(=O)Nc3ccccc3-c3ccccc3NC(=O)CNc3ccc4c(SCCCN(C)C)c5ccccc5nc4c3)ccc12			> 100	> 100	> 100	> 100		> 100	> 100	> 100	> 100	92.7
Cc1nccc2c1cnc1ccnn12			> 100	> 100	> 100	> 100		> 100	> 100	> 100	> 100	> 100
COc1ccc(C2CCC(Cl)(OC)CC2C=O)cc1 (stereo not drawn)			> 100	> 100	43.7	> 100		> 100	> 100	> 100	> 100	> 100
CC(=N/NC(=S)Nc1c(C)n(C)n(-c2ccccc2)c1=O)/C(C)=N\NC(=S)Nc1c(C)n(C)n(-c2ccccc2)c1=O		> 100	> 100	> 100			> 100	> 100	> 100	> 100	> 100	
COc1ccc(Nc2nc(N)c(C(=O)c3ccc(OC)cc3)s2)cc1		6.94	> 48.6		> 100	32	> 72.4		> 100	> 100	2.1	
CCOC(=O)C1=C(O)c2ccccc2C(=O)C1=O			> 100	> 100	> 100	> 100		> 100	> 100	> 100	> 100	> 100
Cc1cc(NC(=O)C(=O)Cc2cnc3ccccc3n2)c(S(=O)(=O)O)cc1Cl		> 100	> 100	> 100	> 100	> 100	> 100	> 100	> 100	> 100	> 100	> 100
